The assay has as its system Cmm. Put plainly: Agar well diffusion assay against Cmm. The format is cell-based, Clavibacter michiganensis subsp. michiganensis. On the procedure:
In addition, the antibacterial activity of various fractions and the purified antibiotic produced by B. pumilus was assessed via agar well diffusion assay. Cmm was grown as described above and a suspension of 100 μL was evenly spread over fresh NBYA plates using sterile spreader. Wells of 6 mm diameter were carefully made in the agar and 50 μL of the test fraction or antibiotic test sample extracted from B. pumilus was poured into the agar well. Sterilized distilled water served as a control treatment.
The antimicrobial activities of Micrococcin P1 at various concentrations were assessed via agar well diffusion assay. A cell suspension of Cmm was overlaid on NBYA and the plates were allowed to air dry. A 50 μL drop of Micrococcin P1 diluted in various concentrations were applied into agar well.
For orientation: Agar diffusion results depend on both activity and mobility in agar.

Where “and” joins values, the source holds several entries; their conditions need not be identical. Identical values can stand only once. A value given as a limit tells only on which side of the number the result lay.

In the case of Micrococcin P1, the “antibacterial activity against Cmm, zone of inhibition around the well” value (50 μL in 6 mm agar well, NBYA, 28° C., 3 days) is “antimicrobial activity against Cmm”. Also, the “concentration having the most significant effects” value (highest concentration tested) is 5 mg/L and 4.37 μM. Under “per well in 50 μL, NBYA, 3 days 28° C.”, the “amount per well needed for growth inhibition zones” value is no less than 7.8125 ng. Further, under “various concentrations, FIG. 7”, the “dose dependence of antibacterial activities” value is given as “increased proportional to the Micrococcin P1 concentrations”.

(Values after patent US20260182582A1, “METHODS AND COMPOSITIONS FOR BIOPROTECTION OF TOMATOES FROM CLAVIBACTER MICHIGANENSIS SUBSP. MICHIGANENSIS” (The Royal Institution for the Advancement of …, priority 2018, published 2026).)
